Measurements from US9994913B2, “Methods and compositions for detecting and treating drug resistant AKT mutant” (Genentech, Inc., priority 2013, dated 2018).
Entries after “also recorded” stand apart in the source; their conditions may differ.

Tests used:
Type in all cases: cell-based
LNCaP cells = test: Dose response of AKT inhibitors in parental and AKT-inhibitor-resistant LNCaP cells (FIGS. 1-2, 6)
Experimental: Resistant clones to both inhibitors were derived from populations of cancer cells treated with increasing doses of AKT inhibitor over time. […] For MK2206, cells that are ˜40× less sensitive were cloned.
(§1) The in vitro potency of the combinations of the compound of Example 2 with certain specific chemotherapeutic agents was measured using the CellTiterGlo® Luminescent Cell Viability Assay, commercially available from Promega Corp., Madison, Wis. This homogeneous assay method is based on the recombinant expression of Coleoptera luciferase (U.S. Pat. Nos. 5,583,024; 5,674,713; 5,700,670) and determines the number of viable cells in culture based on quantitation of the ATP present, an indicator of metabolically active cells (Crouch et al (1993) J. Immunol. Meth. 160:81-88; U.S. Pat. No. 6,602,677). The CellTiter-Glo® Assay was conducted in 96 or 384 well format, making it amenable to automated high-throughput screening (HTS) (Cree et al (1995) AntiCancer Drugs 6:398-404). The homogeneous assay procedure involves adding the single reagent (CellTiter-Glo® Reagent) directly to cells cultured in serum-supplemented medium. Cell washing, removal of medium and multiple pipetting steps are not required. The system detects as few as 15 cells/well in a 384-well format in 10 minutes after adding reagent and mixing.
The homogeneous “add-mix-measure” format results in cell lysis and generation of a luminescent signal proportional to the amount of ATP present. The amount of ATP is directly proportional to the number of cells present in culture. The CellTiterGlo® Assay generates a “glow-type” luminescent signal, produced by the luciferase reaction, which has a half-life generally greater than five hours, depending on cell type and medium used. Viable cells are reflected in relative luminescence units (RLU). […] Data can be recorded by luminometer or CCD camera imaging device. The luminescence output is presented as relative light units (RLU), measured over time.

pS6 = test: Western blot of AKT inhibitor dosed LNCaP cells, downstream pS6 (FIGS. 3-4)
Text: (§2) FIGS. 3-4 show Western blot analysis of AKT inhibitor dosed to cancer cells (LNCaP cells).

IGROV1 cells = test: Treatment of parental and AKT-inhibitor-resistant IGROV1 ovarian cancer cells (FIGS. 7-9); conditions: for potency in parental and resistant lines: all IGROV1 lines, FIG. 9
Experimental: as §1
The homogeneous “add-mix-measure” format results in cell lysis and generation of a luminescent signal proportional to the amount of ATP present. The amount of ATP is directly proportional to the number of cells present in culture. The CellTiterGlo® Assay generates a “glow-type” luminescent signal, produced by the luciferase reaction, which has a half-life generally greater than five hours, depending on cell type and medium used. Viable cells are reflected in relative luminescence units (RLU). The substrate, Beetle Luciferin, is oxidatively decarboxylated by recombinant firefly luciferase with concomitant conversion of ATP to AMP and generation of photons. The extended half-life eliminates the need to use reagent injectors and provides flexibility for continuous or batch mode processing of multiple plates. This cell proliferation assay can be used with various multiwell formats, e.g. 96 or 384 well format. Data can be recorded by luminometer or CCD camera imaging device. The luminescence output is presented as relative light units (RLU), measured over time.

Akt = test: Western blot of AKT inhibitor dosed LNCaP cells, Akt phosphorylation and inhibitor binding (FIGS. 3-4); conditions: MK2206 resistant LNCaP cells vs parental lines
Text: as §2

CC(C)NC[C@@H](C(=O)N1CCN(c2ncnc3c2[C@H](C)C[C@H]3O)CC1)c1ccc(Cl)cc1 [GDC-0068, (S)-2-(4-chlorophenyl)-1-(4-((5R,7R)-7-hydroxy-5-methyl-6,7-dihydro-5H-cyclopenta [d]pyrimidin-4-yl)piperazin-1-yl)-3-(isopropylamino)propan-1-one]
sensitivity of MK2206-resistant cells to the inhibitor (LNCaP cells; MK2206-resistant LNCaP cells, FIG. 6): still sensitive; also recorded: remain sensitvie | inhibition of downstream pS6 (pS6; GDC-0068 resistant LNCaP cells): less potent | resistance of GDC0068-resistant cells to the inhibitor (IGROV1 cells; IGROV1 cells resistant to GDC0068, GDC-0068 compared with MK2206): more resistant to GDC-0068 than MK2206

CS(=O)(=O)N1CCN(Cc2cc3nc(-c4cccc5[nH]ncc45)nc(N4CCOCC4)c3s2)CC1 [GDC-0941]
potency in parental and resistant lines (IGROV1 cells): remain potent

Cc1c(CN2CCN(C(=O)[C@H](C)O)CC2)sc2c(N3CCOCC3)nc(-c3cnc(N)nc3)nc12 [GDC-0980]
potency in parental and resistant lines (IGROV1 cells): remain potent

NC1(c2ccc(-c3nc4ccn5c(=O)[nH]nc5c4cc3-c3ccccc3)cc2)CCC1 [MK2206, 8-[4-(1-aminocyclobutyl)phenyl]-9-phenyl-1,2,4-triazolo[3,4-f][1,6]naphthyridin-3(2H)-one]
resistance of GDC-0068 selected cells to the inhibitor (LNCaP cells; GDC-0068 selected LNCaP cells, FIG. 6): similarly resistant | fold less sensitive to MK2206, resistant clones vs parental (LNCaP cells; LNCaP clones derived under increasing doses of MK2206): ~40 × | inhibition of pS6 (pS6; MK2206 resistant LNCaP cells): lost the inhibition of pS6 | resistance to allosteric inhibition (IGROV1 cells; IGROV1 cells resistant to GDC0068 and cells resistant to MK2206): equally resistant | inhibition of Akt phosphorylation (Akt): failed to inhibit Akt phosphorylation
